Test results: US12441704B2, “Compounds active towards nuclear receptors” (NUEVOLUTION A/S, priority 2019, dated 2025)

How the values were obtained:
[1] = system: Th17 cells; test: Th17 Assay (IL-17 levels in supernatants of differentiating Th17 cells); format: cell-based; settings: 168 h; human naive CD4+ T cells differentiated to Th17 for seven days; IL-17 in supernatants by ELISA
Experimental: The following modifications were made to the manufacturer's protocol: 1) Incubation with Biotin-Antibody Cocktail and Anti-Biotin MicroBeads was prolonged to 30 minutes, and 2) Cells were washed with 40 mL of Miltenyi buffer. […] Test compounds were tested in triplicates, diluted 1000-fold in medium (final DMSO concentration is 0.1%). Incubated for seven days at 37° C., 5% CO2, 95% humidity, and 2-fluoro-4′-[[4-(4-pyridinylmethyl)-1-piperazinyl]methyl]-α,α-bis(trifluoromethyl)-[1,1′-biphenyl]-4-methanol (SR2211 Calbiochem, Cat. No. 557353) was used as positive control. As negative control, cells were differentiated into Th0 using 5 μg/ml anti-CD28 (BD Pharmingen), 10 ng/ml IL-2 (R&D Systems), 2 μg/ml anti-ILA (R&D Systems) and 2 μg/ml anti-IFNγ (R&D Systems) are negative control. IL-17 levels in supernatants were measured with ELISA (R&D Systems).

[2] = biological target: T1, RORγ ligand-binding domain fused to Gal4 (Homo sapiens, UniProt P51449); test: RORγ Reporter Assay (Gal4); format: cell-based; settings: compounds of the present disclosure; value from Table 2 herein; read-out: Gal4 assay EC50
T1 construct: Gal4 (galactose-responsive transcription factor); expressed in transfected cells; host or cells: HEK293
T1 sequence (P51449 269-508 limits assumed): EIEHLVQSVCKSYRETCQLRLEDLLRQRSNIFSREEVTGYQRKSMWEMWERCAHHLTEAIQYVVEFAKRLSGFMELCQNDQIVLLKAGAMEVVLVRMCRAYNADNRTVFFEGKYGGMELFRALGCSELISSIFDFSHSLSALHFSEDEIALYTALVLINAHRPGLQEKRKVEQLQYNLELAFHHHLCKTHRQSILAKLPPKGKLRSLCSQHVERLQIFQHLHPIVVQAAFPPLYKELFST
How it was run: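 HEK293 cells transiently co-transfected with the Gal4-fused RORγ LBD and a UAS-luciferase reporter were exposed to compounds for 24 h at 37 °C (0.1% DMSO final). Luminescence was read, and percent reduction of RORγ activity was calculated relative to vehicle-average RLU.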

Question: Which results are given for `NC(=O)CN1CCC(CNc2ncnc(N(Cc3ccc(C(F)(F)F)cn3)C3CC3)c2F)C(F)(F)C1` (single isomer, unassigned) [Example A7-03-1]?
Answer: EC50 [1]: 83 nM; EC50 [2]: < 100 nM
